Where “and” joins values, the source holds several entries; their conditions need not be identical. Identical values can stand only once. Toxic doses and inconclusive results are not listed. Rule for the calls: active = survival T/C of 150% or more; inactive = T/C below 125% in these data.
Test system: CD2F1 mice, L1210 leukemia ip, survival T/C
Test: NCI In Vivo Anticancer Drug Screen. Data for tumor model L1210 Leukemia (intraperitoneal) in CD2F1 (CDF1) mice
Settings: higher = longer survival
How it was run: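 Ratio T/C, where T is the treated-group value and C the vehicle-dosed control value, from mice implanted with a transplantable tumor.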

[1] = endpoint: mean survival time, dose: 25.0 mg/kg/injection, schedule: Q01DX009 (ip), vehicle: other
[2] = endpoint: mean survival time, dose: 50.0 mg/kg/injection, schedule: Q01DX009 (ip), vehicle: other
[3] = endpoint: mean survival time, dose: 100.0 mg/kg/injection, schedule: Q01DX009 (ip), vehicle: other
[4] = endpoint: mean survival time, dose: 200.0 mg/kg/injection, schedule: Q01DX009 (ip), vehicle: other
[5] = endpoint: mean survival time, dose: 50.0 mg/kg/injection, schedule: Q04DX003 (ip), vehicle: saline
[6] = endpoint: mean survival time, dose: 100.0 mg/kg/injection, schedule: Q04DX003 (ip), vehicle: saline
[7] = endpoint: mean survival time, dose: 200.0 mg/kg/injection, schedule: Q04DX003 (ip), vehicle: saline
[8] = endpoint: mean survival time, dose: 200.0 mg/kg/injection, schedule: Q01DX009 (ip), vehicle: saline with Tween-80
[9] = endpoint: mean survival time, dose: 100.0 mg/kg/injection, schedule: Q04DX003 (ip), vehicle: saline with Tween-80
[10] = endpoint: mean survival time, dose: 100.0 mg/kg/injection, schedule: Q01DX009 (ip), vehicle: saline with Tween-80

Measured: T/C

OC(Cc1ccc2ccccc2n1)C(Cl)(Cl)Cl (stereo not drawn)
inactive: endpoint: mean survival time, dose: 100.0 mg/kg/injection, schedule: Q04DX003 (ip), vehicle: alcohol 95 % of control | endpoint: mean survival time, dose: 200.0 mg/kg/injection, schedule: Q04DX003 (ip), vehicle: alcohol 95 % of control | endpoint: mean survival time, dose: 400.0 mg/kg/injection, schedule: Q04DX003 (ip), vehicle: alcohol 101 % of control

OCC1OC(n2ncc3cncnc32)C(O)C1O (stereo not drawn)
inactive: [1] 94 % of control | [2] 97 % of control | [3] 90 % of control | [4] 97 % of control

NNc1n[nH]c(=S)n1N
inactive: endpoint: mean survival time, dose: 6.25 mg/kg/injection, schedule: Q01DX009 (ip), vehicle: saline with Tween-80 103 % of control | endpoint: mean survival time, dose: 12.5 mg/kg/injection, schedule: Q01DX009 (ip), vehicle: saline with Tween-80 102 % of control | endpoint: mean survival time, dose: 25.0 mg/kg/injection, schedule: Q01DX009 (ip), vehicle: saline with Tween-80 104 % of control and 107 % of control

O=C1c2ccccc2CC12OC2c1ccccc1 (stereo not drawn)
inactive: endpoint: mean survival time, dose: 25.0 mg/kg/injection, schedule: Q01DX009 (ip), vehicle: Klucel (hydroxypropylcellulose) (HPC) 103 % of control | endpoint: mean survival time, dose: 50.0 mg/kg/injection, schedule: Q01DX009 (ip), vehicle: Klucel (hydroxypropylcellulose) (HPC) 110 % of control | endpoint: mean survival time, dose: 100.0 mg/kg/injection, schedule: Q01DX009 (ip), vehicle: Klucel (hydroxypropylcellulose) (HPC) 89 % of control | endpoint: mean survival time, dose: 200.0 mg/kg/injection, schedule: Q01DX009 (ip), vehicle: Klucel (hydroxypropylcellulose) (HPC) 98 % of control | endpoint: mean survival time, dose: 400.0 mg/kg/injection, schedule: Q01DX009 (ip), vehicle: Klucel (hydroxypropylcellulose) (HPC) 98 % of control

CCCC1(CCC)c2ccccc2C(Cl)(CCl)c2ccccc21
inactive: endpoint: mean survival time, dose: 12.5 mg/kg/injection, schedule: Q01DX009 (ip), vehicle: other 88 % of control | [1] 94 % of control | [2] 92 % of control | [3] 94 % of control | [4] 86 % of control

Cc1ccc(S(=O)(=O)OC2(c3cc(C(F)(F)F)cc(C(F)(F)F)c3)C3CCC2CC3)cc1 (stereo not drawn)
inactive: endpoint: mean survival time, dose: 37.5 mg/kg/injection, schedule: Q04DX002 (ip), vehicle: saline with Tween-80 102 % of control | endpoint: mean survival time, dose: 75.0 mg/kg/injection, schedule: Q04DX002 (ip), vehicle: saline with Tween-80 94 % of control | endpoint: mean survival time, dose: 150.0 mg/kg/injection, schedule: Q04DX002 (ip), vehicle: saline with Tween-80 98 % of control | endpoint: mean survival time, dose: 300.0 mg/kg/injection, schedule: Q04DX002 (ip), vehicle: saline with Tween-80 102 % of control

O=c1ccn(C2OC(CO)C3[O][Sn]([c]4ccccc4)([c]4ccccc4)[O]C32)c(=O)[nH]1 (stereo not drawn)
inactive: endpoint: mean survival time, dose: 1.56 mg/kg/injection, schedule: Q01DX005 (ip), vehicle: other 110 % of control | endpoint: mean survival time, dose: 3.13 mg/kg/injection, schedule: Q01DX005 (ip), vehicle: other 107 % of control | endpoint: mean survival time, dose: 6.25 mg/kg/injection, schedule: Q01DX005 (ip), vehicle: other 98 % of control | endpoint: mean survival time, dose: 12.5 mg/kg/injection, schedule: Q01DX005 (ip), vehicle: other 102 % of control and 105 % of control

COC1OC2COC(C)(c3ccccc3)OC2C(O)C1[NH-].COC1OC2COC(C)(c3ccccc3)OC2C(O)C1[NH-].[Cl][Pt+2][Cl] (stereo not drawn)
inactive: endpoint: mean survival time, dose: 12.5 mg/kg/injection, schedule: Q04DX003 (ip), vehicle: saline 93 % of control | endpoint: mean survival time, dose: 25.0 mg/kg/injection, schedule: Q04DX003 (ip), vehicle: saline 96 % of control | [5] 96 % of control | [6] 95 % of control | [7] 102 % of control

CN(C)CCNC(=O)c1ccc(N)cc1
inactive: endpoint: mean survival time, dose: 100.0 mg/kg/injection, schedule: Q04DX002 (ip), vehicle: saline 102 % of control | endpoint: mean survival time, dose: 200.0 mg/kg/injection, schedule: Q04DX002 (ip), vehicle: saline 102 % of control

O=C(CCl)Cc1ccccc1
inactive: [5] 98 % of control | endpoint: mean survival time, dose: 100.0 mg/kg/injection, schedule: Q01DX001 (ip), vehicle: saline 104 % of control | [6] 92 % of control | endpoint: mean survival time, dose: 200.0 mg/kg/injection, schedule: Q01DX001 (ip), vehicle: saline 103 % of control | [7] 101 % of control

Cc1ccc(N=C(C(=Nc2ccc(C)cc2)c2ccccc2)c2ccccc2)cc1
inactive: [8] 101 % of control | endpoint: mean survival time, dose: 400.0 mg/kg/injection, schedule: Q01DX009 (ip), vehicle: saline with Tween-80 92 % of control

CC(=O)OCCC(C)Nc1ccnc2cc(Cl)ccc12 (stereo not drawn)
inactive: endpoint: mean survival time, dose: 10.0 mg/kg/injection, schedule: Q01DX009 (ip), vehicle: saline with Tween-80 100 % of control | endpoint: mean survival time, dose: 20.0 mg/kg/injection, schedule: Q01DX009 (ip), vehicle: saline with Tween-80 102 % of control | endpoint: mean survival time, dose: 40.0 mg/kg/injection, schedule: Q01DX009 (ip), vehicle: saline with Tween-80 96 % of control | [9] 100 % of control

CCCCCCC(Sc1n[nH]c(=O)[nH]c1=O)C(=O)OCC (stereo not drawn)
inactive: endpoint: mean survival time, dose: 12.5 mg/kg/injection, schedule: Q01DX005 (ip), vehicle: distilled water + Tween-80 97 % of control | endpoint: mean survival time, dose: 25.0 mg/kg/injection, schedule: Q01DX005 (ip), vehicle: distilled water + Tween-80 102 % of control | endpoint: mean survival time, dose: 50.0 mg/kg/injection, schedule: Q01DX005 (ip), vehicle: distilled water + Tween-80 102 % of control | endpoint: mean survival time, dose: 100.0 mg/kg/injection, schedule: Q01DX005 (ip), vehicle: distilled water + Tween-80 96 % of control | endpoint: mean survival time, dose: 200.0 mg/kg/injection, schedule: Q01DX005 (ip), vehicle: distilled water + Tween-80 97 % of control

Cc1cn(C2CC(O)C(CO)O2)c(=O)nc1NCc1cccs1 (stereo not drawn)
inactive: endpoint: median survival time, dose: 12.5 mg/kg/injection, schedule: Q01DX005 (ip), vehicle: water 103 % of control | endpoint: median survival time, dose: 25.0 mg/kg/injection, schedule: Q01DX005 (ip), vehicle: water 105 % of control | endpoint: median survival time, dose: 50.0 mg/kg/injection, schedule: Q01DX005 (ip), vehicle: water 106 % of control | endpoint: median survival time, dose: 100.0 mg/kg/injection, schedule: Q01DX005 (ip), vehicle: water 101 % of control | endpoint: median survival time, dose: 200.0 mg/kg/injection, schedule: Q01DX005 (ip), vehicle: water 103 % of control

CC(=O)NCC(O)C(O)C(O)C(O)CO (stereo not drawn)
inactive: endpoint: mean survival time, dose: 100.0 mg/kg/injection, schedule: Q01DX009 (ip), vehicle: saline 96 % of control | endpoint: mean survival time, dose: 200.0 mg/kg/injection, schedule: Q01DX009 (ip), vehicle: saline 98 % of control | endpoint: mean survival time, dose: 400.0 mg/kg/injection, schedule: Q01DX009 (ip), vehicle: saline 110 % of control

CC(=O)c1ccccc1[N+](=O)[O-]
inactive: [10] 94 % of control | [8] 95 % of control

CC(=O)N(C)c1ccc(NC(=O)Nc2ccc(C)c([N+](=O)[O-])c2)cc1
inactive: endpoint: mean survival time, dose: 50.0 mg/kg/injection, schedule: Q01DX009 (ip), vehicle: saline with Tween-80 102 % of control | [10] 94 % of control | [8] 90 % of control

CNc1ccc(CSc2ccccc2)cc1
inactive: endpoint: mean survival time, dose: 100.0 mg/kg/injection, schedule: Q01DX001 (ip), vehicle: Klucel (hydroxypropylcellulose) (HPC) 96 % of control | endpoint: mean survival time, dose: 200.0 mg/kg/injection, schedule: Q01DX001 (ip), vehicle: Klucel (hydroxypropylcellulose) (HPC) 96 % of control | endpoint: mean survival time, dose: 400.0 mg/kg/injection, schedule: Q01DX001 (ip), vehicle: Klucel (hydroxypropylcellulose) (HPC) 87 % of control

Cc1ccc(NC(=S)NC(=O)/C=C/c2ccccc2)cc1Cl
inactive: endpoint: mean survival time, dose: 50.0 mg/kg/injection, schedule: Q04DX002 (ip), vehicle: saline with Tween-80 95 % of control and 97 % of control | endpoint: mean survival time, dose: 100.0 mg/kg/injection, schedule: Q04DX002 (ip), vehicle: saline with Tween-80 91 % of control and 97 % of control | endpoint: mean survival time, dose: 200.0 mg/kg/injection, schedule: Q04DX002 (ip), vehicle: saline with Tween-80 93 % of control and 94 % of control

CCCCOc1ccc(C=Nc2ccc(CC)cc2)cc1
inactive: [9] 101 % of control | endpoint: mean survival time, dose: 200.0 mg/kg/injection, schedule: Q04DX003 (ip), vehicle: saline with Tween-80 97 % of control | endpoint: mean survival time, dose: 400.0 mg/kg/injection, schedule: Q04DX003 (ip), vehicle: saline with Tween-80 103 % of control

From PubChem BioAssay AID256 (DTP/NCI, 2004)
